Source: patent US12473551B2, “Small RNA-based drug, preparation and use thereof in prophylaxis and/or treatment of cardiomyopathy” (SOUTHWEST MEDICAL UNIVERSITY, priority 2023, dated 2025)
“Also recorded” adds a separate entry of the source.

Tests used:
[1] = tested on: AC16 human cardiomyocytes treated with AGEs; assay: CCK8 cell viability screening of candidate sequences in AGEs-treated cardiomyocytes; assay type: cell-based; conditions: for protective effect on cardiomyocytes compared with DICAR-JP / relative cell viability / protective effect at around 48 h: 20 nM, CCK8; for protective effect on cardiomyocytes compared with DICAR-JP: 24 h transfection; for protective effect on cardiomyocytes compared with DICAR-JP / relative cell viability: AGEs 200 μg/mL for 24 h; for protective effect at around 48 h: AGEs 200 μg/mL for 48 h
Experimental: In this example, CCK8 assay was used to evaluate the protective activity of the candidate sequences against cardiomyocytes treated with advanced glycation end products (AGEs, purchased from Bioss®, Cat #bs-1158P), so as to select a small RNA with a better protective effect on cardiomyocytes. The method included the following steps:
Cell culture: AC16 human cardiomyocytes (purchased from Guangzhou Jennio Biotech Co., Ltd., derived from ATCC) were cultured in DMEM (High Glucose) Complete Medium (supplemented with 10% fetal bovine serum (FBS) and 1% […]) in a 5% CO2, 37° C. incubator.
Grouping: Control, AGEs (200 μg/mL, 24 h/48 h), negative control (NC, 20 nM, 24 h), DICAR-JP4 (20 nM, 24 h), DICAR-JP6 (20 nM, 24 h), DICAR-JP18 (20 nM, 24 h), DICAR-JP23 (20 nM, 24 h), DICAR-JP27 (20 nM, 24 h), DICAR-JP28 (20 nM, 24 h), DICAR-JP29 (20 nM, 24 h), DICAR-JP32 (20 nM, 24 h), DICAR-JP40 (20 nM, 24 h), DICAR-JP45 (20 nM, 24 h), and DICAR-JP (20 nM, 24 h).
Nucleic acid transfection method: Two microliters (μL) each of Lipofectamine® RNAi MAX (Thermo Fisher Scientific RNi MAX, Cat #13778-500) and DICAR-JPN were diluted with Opti-MEM® Medium (50 μL), respectively, and then the two reagents were mixed well and incubated at room temperature for 5 min. The Lipofectamine® RNAi MAX-DICAR-JPN complex was added to the AC16 cell supernatant (50 μL/well, 24 h) on a 24-well plate. Afterward, the complete medium was replaced with serum-free DMEM, and the cell cycle was synchronized for 2 h. AC16 cells were treated with 200 μg/mL AGEs for 24 and 48 h, respectively, and their viability was evaluated by CCK8 assay.
Evaluation of cell viability by CCK8 assay: The cells were washed twice with phosphate-buffered saline (PBS) in the dark, and serum-free DMEM supplemented with CCK8 (CCK8: DMEM=1:9) was added; the well plate was placed back into the cell culture incubator for further incubation for 1 h, and the absorbance was measured at 450 nm using a microplate reader. The cell viability (%) was calculated according to the following formula: Cell viability=[(A450nmExperiment−A450nmBlank)]/[(A450nmControl−A450nmBlank)]×100%, where the blank refers to the serum-free DMEM.

db/db mice = assay: Cardiac function of db/db mice after AAV9-DICAR-JP / AAV9-DICAR-JP45 tail vein injection; assay type: in vivo, mouse; conditions: for E′/a value: db/db mice 1.14, DICAR-JP p<0.05, DICAR-JP45 no statistical significance
From the text: In the present disclosure, Shanghai Jikai Gene Medical Technology Co., Ltd. was commissioned to construct AAV9-DICAR-JP and AAV9-DICAR-JP45 viruses based on the sequences shown in SEQ ID NOS: 12 and 10, including CMV bGlobin EGFP-MCS-WPRE hGH polyA as a viral plasmid construction skeleton element sequence, a vector with the number GV412, and NheI and Hind III as cloning sites; the construction of microRNA up involves extending the precursor sequence of microRNA approximately 100 bp each upstream and downstream of the genome, ensuring the splicing efficiency of microRNA.
The mice were divided into db/m+AAV9-GFP (mock control, 5×10^11 vg), db/db+AAV9-GFP (5×10^11 vg), db/db+AAV9-DICAR-JP (5×10^11 vg), db/db+AAV9-DICAR-JP45 (5×10^11 vg), and db/db+dapagliflozin (DAPA, 1.5 mg/kg/d) groups. AAV9 viruses were injected into the tail vein of the mice at the age of 4 months. The mice in the db/db group were administered by gastric gavage with DAPA at the age of 5 months, and the mice in the db/m group were controls without gastric gavage of DAPA. The changes of cardiac function were evaluated by small animal echocardiography at the age of 5, 6 and 7 months, respectively, cardiac remodeling was evaluated by Masson staining, and myocardial hypertrophy was evaluated by wheat germ agglutinin (WGA) staining.

[2] = tested on: AC16 cardiomyocytes treated with AGEs; assay: Pharmacodynamics: CCK8 EC50 against AGEs-induced cardiomyocyte injury; assay type: cell-based, human; conditions: for protective effect over concentration gradient (relative survival of cardiomyocytes): 1, 10, 20, 30, 40, 50 nM + AGEs 200 μg/mL, 24 h; for EC50: 1-50 nM, 24 h + AGEs 200 μg/mL, CCK8, fitting curve, read-out: half-maximal effect concentration (EC50)
Experimental: The cell viability was detected by CCK8 assay after 24 h of cell treatment. The absorbance was measured at 450 nm using a microplate reader to calculate the half-maximal effect concentration (EC50), respectively. EC50 was calculated according to the following formula:
[formula] where the blank refers to the serum-free DMEM.

NACα protein = NACα protein (Homo sapiens, UniProt Q13765); assay: Localized surface plasmon resonance (SPR) binding to NACα protein; conditions: DEPC-treated water, 25° C.; for Kd: ratio Koff/Kon
From the text: The affinity of DICAR-JP45 and DICAR-JP for binding to NACα protein was compared using localized surface plasmon resonance (SPR) technology (Wuhan Yangene Biological Technology Co., Ltd.).
Among them, the dissociation coefficient Koff is used to characterize the constant of the dissociation velocity of DICAR-JP45 and NACα protein, the binding coefficient Kon is used to characterize the constant of the binding velocity of DICAR-JP45 and NACα protein, and the affinity constant KD is the ratio of Koff/Kon, indicating the equilibrium dissociation constant between DICAR-JP45 and NACα protein.

ASC = assay: Western blot of pyroptosis-related protein ASC in AGEs-treated AC16 cells; assay type: cell-based, human; conditions: 40 nM, 24 h + AGEs 200 μg/mL, β-actin reference
Experimental: (§1) The DICAR-JP45 (40 nM) and DICAR-JP sequences were transfected into AC16 cell model for 24 h, respectively. The serum-free medium was replaced for starvation for 2 h, followed by treatment with AGEs (200 μg/mL) for 24 h, respectively. After the cells were treated, the expressions of pyroptosis-related proteins, GSDMD and apoptosis associated speck-like protein containing a CARD (ASC), were detected by Western blot (WB). The internal reference protein was β-actin. The WB was conducted according to the following steps.
(§2) The cells were rinsed twice with PBS, protein lysate (100 μL/well) was added, and the cells were lysed on ice for 30 min. The lysate was collected and centrifuged at 12000 rpm for 30 min at 4° C. After centrifugation, the supernatant protein was collected. The protein sample was mixed with the protein loading buffer at a 4:1 ratio and heated in a metal bath at 95° C. for 10 min, and the sample was stored at 4° C. […] Signals were detected by using enhanced chemiluminescent reagent, and the Western blot bands were quantitatively analyzed by Image J software. […]

GSDMD = assay: Western blot of pyroptosis-related protein GSDMD in AGEs-treated AC16 cells; assay type: cell-based, human; conditions: 40 nM, 24 h + AGEs 200 μg/mL, β-actin reference
Experimental: as §1, §2

[3] = AAV9 tail vein, echocardiography

Sequence | protective effect on cardiomyocytes compared with DICAR-JP [1] | relative cell viability [1] | protective effect at around 48 h [1] | E′/a value (db/db mice; AAV9 5×10^11 vg tail vein) | cardiomyocyte hypertrophy (WGA staining) (db/db mice; AAV9 tail vein) | protective effect over concentration gradient (relative survival of cardiomyocytes) [2] | EC50 [2] [nM] | Koff (NACα protein) [s⁻¹] | Kon (NACα protein) [M⁻¹ s⁻¹] | Kd (NACα protein) [nM] | efficacy duration [1] | improvement in mouse cardiac function (db/db mice; 3 months after tail vein injection at age 4 months) | ejection fraction (EF) value (db/db mice; AAV9 5×10^11 vg tail vein, 3 months after injection, db/db mice 57.5%) [%] | FS value (db/db mice; [3]) | LVVs value (db/db mice; [3]) | suppression of expression of ASC (ASC) | suppression of expression of GSDMD (GSDMD)
CAACCUCCGGGGCCACAAUAGCGAGAUUUGUAAGAUUCCAGGGCCUCCCAG (listed as RNA, chemistry not given here) [DICAR-JP40] | significant protective effect | significantly higher than that of the model group | disappeared |  |  |  |  |  |  |  |  |  |  |  |  |  | 
CAACCUCCGGGGCCACAAUAGCGAGAUUUGUAAGACUCCAGGGCCUCCCAG (chemistry not given here) [DICAR-JP, reference compound] |  |  |  | 1.73 | effectively inhibit cardiomyocyte hypertrophy | increase within the concentration gradient range | 26.2 | 0.000866 | 22600 | 38.3 |  |  |  |  |  |  | 
CAACCUCCGGGGCCACAAUAGCGAGAUUUGUAAGACUCUAGGGCCUCCCAG (chemistry not given here) [DICAR-JP45] | significant protective effect | higher cardiomyocyte viability; also recorded: close to that of the untreated group | disappeared | 1.45 | no significant effect on improving myocardial hypertrophy | increase within the concentration gradient range | 17.9 | 0.000152 | 25000 | 6.09 | over 24 h | a certain effect on improving cardiac function | 71.07 | improve | improve | more significantly compared with DICAR-JP | more significantly compared with DICAR-JP
